Common to all, as to format: cell-based
The subject of one series is PCSK9. Briefly: PCSK9 ELISA on HepG2 culture medium. The following applies: HepG2 cells, 24 hr. Here is the method:
(§1) HepG2 cells (ATCC, Cat.: HB-8065) were maintained in Growth medium-Eagle's Minimum Essential Medium (Corning, 10-010-CVR), 10% FBS (Gibco, 10099-141), Penicillin (100 units/mL), Streptomycin ([…]). HepG2 cells were incubated at 37° C., 5% CO2. HepG2 cells were plated in flat bottom 96-well plates (Corning, 3599) at 40,000 cells/well in 100 μL of growth media. After an overnight incubation, the culture media were changed to serum-free OptiMEM media (Gibco, 31985-062), 90 μL/well. Vehicle, PF-06446846 hydrochloride, berberine, or test compound was added to the culture media, 10 μL/well. After 24 hr medium was harvested, and 10 μL of the medium were used for the PCSK9 ELISA (R&D Systems, SPC900).
For orientation: In an ELISA, binding on a coated surface is turned into a signal by an enzyme label.

A further series has as its system PCSK9 mRNA. Briefly: RT-Q-PCR analysis of PCSK9 mRNA in HepG2 cells. The following applies: Homo sapiens, 24 h, normalized to GAPDH, read-out: HepG2 Q-PCR PCSK9 mRNA level decrease (10 μM). Here is the method:
HepG2 cells (ATCC, Cat.: HB-8065) were maintained in Growth medium-Eagle's Minimum Essential Medium (Corning, 10-010-CVR), 10% FBS (Gibco, 10099-141), Penicillin (100 units/mL), Streptomycin ([…]). HepG2 cells were incubated at 37° C., 5% CO2.
Cells were cultured in growth medium as described above and treated with the vehicle, Berberine or test compound for 24 h. The RNA was extracted using the Total RNA mini Kit (Tiangen, Beijing, China) according to the manufacturer's instructions. Reverse transcription was carried out using the High-Capacity cDNA reverse transcription kit (Thermo Fisher Scientific). Quantitative real-time PCR was performed using a reaction mixture containing cDNA, specific primers [PCSK9, 5′-[…]-3′ (forward) and 5′-[…]-3′ (reverse); GAPDH, 5′-[…]-3′ (forward) and 5′-[…]-3′ (reverse)] and Maxima SYBR Green/ROX qPCR Master Mix (Thermo Fisher Scientific). PCR amplification was carried out in a Real-Time PCR System. The real-time PCR conditions were 37° C. 10 min; 95° C. 10 min; 95° C. 15 s, 60° C. 30 s, 72° C. 30 s, 40 cycle. The amount of % RNA was normalized to the GAPDH level in the same samples.

The subject of series [1] is HepG2 cells. Briefly: Measurement of Dil-LDL uptake in HepG2 cells. The following applies: Homo sapiens, 24 h, 10 μM for 20 h, then 20 μg/mL Dil-LDL 4 h, read-out: LDL uptake 10 μM (fold of vehicle). How it is done: HepG2 cells were maintained in MEM supplemented with 10% FBS. The cells were seeded in 96 well black plates at a density of 1×10^4 cells per well and grown to 70-80% confluence. Afterwards, cells were changed to serum-free Opti-MEM for 1 h and followed by incubation with 10 μM Berberine or compounds of the present disclosure for 20 h. Then, 20 μg/mL Dil-LDL was added and incubated at 37° C. in the dark for additional 4 h. Cells were extensively washed three times with PBS, and LDL uptake was determined on a fluorescence plate reader at an excitation wavelength of 520 nm and emission wavelength of 580 nm.

Series [2] concerns HepG2 cells. In words: Cell viability assay (HepG2 Survival assay, CellTiter-Glo). Conditions: 24 hr, cellular ATP levels. Here is the method:
as §1, with “black clear” for “flat”, “3063)” for “3599)”, “cellular ATP levels” for “medium was harvested, and 10 μL of the medium”, “measured using CellTiter-Glo® 2.0 Assay (Promega, G9242).” for “used for the PCSK9 ELISA (R&D Systems, SPC900).”

As to `CC(C)c1ccc(Oc2ccc(NC(=O)CN(CC(=O)NCc3ccccc3)C(=O)c3cc4cccc(C#N)c4[nH]3)cc2)cc1` [Compound 201-253], the “HepG2 PCSK9 ELISA (10 μM) % inhibition” value in the series on PCSK9 is reported as 61%. In addition, the inhibition at 10 µM with PCSK9 mRNA was found to be 59%. In addition, the fold induction at 10 µM in the series on HepG2 cells [1] amounted to 1.77. For the same compound, in the series on HepG2 cells [2], the “HepG2 Survival assay (10 μM)” value worked out at 110%.

Consider `COc1ccc(Oc2ccc(NC(=O)CN(CC(=O)Nc3ccccc3)C(=O)c3cc4cccc(F)c4[nH]3)cc2)cc1` [Compound 201-256], for which the “HepG2 PCSK9 ELISA (10 μM) % inhibition” value with PCSK9 is recorded as 78%. Further, the inhibition at 10 µM in the series with PCSK9 mRNA stood at 75%. Also, the fold induction at 10 µM with HepG2 cells [1] came out at 2.43. In addition, the “HepG2 Survival assay (10 μM)” value with HepG2 cells [2] turned out to be 109%.

On to `CC(C)c1ccc(Oc2ccc(NC(=O)CN(CC(=O)Nc3ccccc3)C(=O)c3ccc(C(F)(F)F)[nH]3)cc2)cc1` [Compound 201-265], for which the “HepG2 PCSK9 ELISA (10 μM) % inhibition” value in the series on PCSK9 is 71%. Also, in the series on PCSK9 mRNA, the inhibition at 10 µM was determined as 76%. Further, in the series on HepG2 cells [1], the fold induction at 10 µM was found to be 1.57. The “HepG2 Survival assay (10 μM)” value in the series on HepG2 cells [2] came to 93%.

For `N#Cc1cccc2cc(C(=O)N(CC(=O)Nc3ccccc3)CC(=O)Nc3ccc(Oc4ccc(C(F)(F)F)cc4)cc3)[nH]c12` [Compound 201-267], the “HepG2 PCSK9 ELISA (10 μM) % inhibition” value with PCSK9 is 56%. In addition, in the series with PCSK9 mRNA, the inhibition at 10 µM worked out at 79%. Besides, in the series on HepG2 cells [1], the fold induction at 10 µM is 1.34. Besides, the “HepG2 Survival assay (10 μM)” value in the series on HepG2 cells [2] was 103%.

With `CC(C)c1ccc(Oc2ccc(NC(=O)CN(CC(=O)Nc3ccccc3)C(=O)c3cc4cccc(C#N)c4[nH]3)cc2)cc1` [Compound 201-269], the “HepG2 PCSK9 ELISA (10 μM) % inhibition” value in the series with PCSK9 is 53%. Besides, the inhibition at 10 µM in the series with PCSK9 mRNA turned out to be 87%. Besides, in the series with HepG2 cells [1], the fold induction at 10 µM was found to be 1.34. Also, the “HepG2 Survival assay (10 μM)” value with HepG2 cells [2] is on record as 106%.

Values taken from US20230122967A1, “NOVEL COMPOUNDS AS INHIBITORS OF PCSK9” (SHENGKE PHARMACEUTICALS (JIANGSU) LTD., priority 2020, published 2023).
